# Legend:
# [1] = regular (non-esterified) 19 Nor-DHEA; cited from earlier work
# [2] = Bioavailability / half-life of 19 Nor-DHEA forms; format: in vivo; settings: compared with regular 19 Nor-DHEA
# [3] = via conversion to 4-androstenediol; stated as well known; cited from earlier work
# [4] = cited from earlier work
structure (smiles),measurement,setting,value
C[C@]12CC[C@H]3[C@@H](CC=C4C[C@@H](O)CC[C@@H]43)[C@@H]1CCC2=O [19 Nor-DHEA],half-life,[1],very short half-life
"CCCCCCC(=O)O[C@@H]1C=C2CC[C@@H]3[C@H](CC[C@]4(C)C(=O)CC[C@@H]34)[C@H]2CC1 [enanthated 19 Nor-DHEA, 3b-enanthoxy-19-nor-androst-4-ene-17-one]",bioavailability,[2],improved bioavailability
C[C@]12CC[C@H](O)C=C1CC[C@@H]1[C@@H]2CC[C@]2(C)C(=O)CC[C@@H]12 [4-DHEA],anabolic potency compared with regular DHEA,[3],more than two times greater
C[C@]12C=CC(O)CC1CC[C@@H]1[C@@H]2CC[C@]2(C)C(=O)CC[C@@H]12 (some centres unmarked) [1-DHEA],conversion rate to 1-testosterone,[4]; stated as generally known,less than 2%
"C[C@]12CC[C@H](O)CC1=CC[C@@H]1[C@@H]2CC[C@]2(C)C(=O)CC[C@@H]12 [DHEA, dehydroepiandrosterone]",conversion rate to testosterone,[4]; stated as well known,~1%

# — patent publication US20170304317A1, “DIETARY S[…] MUSCLE GROWTH AND STRENGTH” (priority 2015, published 2017)
